# Measurements: patent US20260364214A1, “MULTIVALENT FIBROBLAST ACTIVATION PROTEIN LIGANDS FOR TARGETED DELIVERY APPLICATIONS” (Philochem AG, priority 2022, published 2026)
# Test system: SK-RC-52.hFAP tumors
# Test: Quantitative biodistribution in SK-RC-52.hFAP tumor bearing mice
# Format: in vivo, mouse (female athymic Balb/c AnNRj-Foxn1)
# Conditions: i.v. 250 nmol/kg, 50 MBq/kg
# Method: SK-RC-52.hFAP were grown to 80% confluence in RPMI-1640 with 10% fetal bovine serum (FBS) and 1% antibiotic-antimycotic and detached with Trypsin-EDTA (ethylenediaminetetraacetic acid) 0.05%. Tumor cells were resuspended in Hanks' Balanced Salt Solution medium. Aliquots of 5 million cells (100 μL of suspension) were injected subcutaneously in the right flank of female athymic Balb/c AnNRj-Foxn1 mice (6 to 8 wk of age).
# Radiolabeling of ESV6-DOTAGA, Bi-ESV6-DOTAGA, Tri-ESV6-DOTAGA, Tetra-ESV6-DOTAGA, Hexa-ESV6-DOTAGA, Octa-ESV6-DOTAGA and FAP-2286 with lutetium-177 (a therapeutic radionuclide) was performed with different specific activities for three different studies (biodistribution, therapy and dose optimization).
# Prior to the biodistribution study, precursors (100 nmol) were dissolved in 100 μL of milliQ water and diluted with 200 μL of sodium acetate (1 M in water, pH=4.5). 20 MBq of ^177Lu solution were added and the mixture was heated at 90 °C for 10 minutes, followed by dilution with […] of PBS to achieve final volume of 2 mL (20 doses of 100 μL each).
# ESV6-DOTAGA, Bi-ESV6-DOTAGA, Tri-ESV6-DOTAGA, Tetra-ESV6-DOTAGA, Hexa-ESV6-DOTAGA, Octa-ESV6-DOTAGA and FAP-2286 were radiolabeled with ^177Lu as described above. Tumors were allowed to grow to an average volume of 300 mm^3. Mice were randomized and injected intravenously with radiolabeled preparations of ^177Lu-ESV6, ^177Lu-Bi-ESV6, ^177Lu-Tri-ESV6, Tetra-ESV6-DOTAGA, Hexa-ESV6-DOTAGA, Octa-ESV6-DOTAGA or ^177Lu-FAP-2286 (250 nmol/kg; 50 MBq/kg). Mice were euthanized at different time-points after the intravenous injection by CO2 asphyxiation. Tumors, organs, and blood were collected, weighted, and radioactivity was measured with a Packard Cobra Gamma Counter. Values are expressed as percent ID/g±SD [FIG. 4]. The % ID/g in the tumors was corrected considering the SK-RC-52.hFAP tumor growth rate.
# Quantitative in vivo biodistribution of ^177Lu-ESV6-DOTAGA, ^177Lu-Bi-ESV6-DOTAGA, ^177Lu-Tri-ESV6-DOTAGA, ^177Lu-FAP-2286, Tetra-ESV6-DOTAGA, Hexa-ESV6-DOTAGA and Octa-ESV6-DOTAGA at different time points after intravenous administration (250 nmol/kg, 50 MBq/kg) in mice bearing SK-RC-52.hFAP tumors, are shown in Tables 1 to 4 and 10 to 12. Data are reported as % ID/g±standard deviation.
# Tumor-to-organ ratios of ^177Lu-ESV6-DOTAGA, ^177Lu-Bi-ESV6-DOTAGA, ^177Lu-Tri-ESV6-DOTAGA, ^177Lu-FAP-2286, Tetra-ESV6-DOTAGA, Hexa-ESV6-DOTAGA and Octa-ESV6-DOTAGA, at different time points after intravenous administration (250 nmol/kg, 50 MBq/kg) in mice bearing SK-RC-52.hFAP tumors, are shown in Tables 5 to 8 and 13 to 15. Avg.=average; Std.d=standard deviation.
smiles,measurement,setting,value
N#C[C@@H]1CC(F)(F)CN1C(=O)CNC(=O)c1ccnc2c(NC(=O)CCC(=O)NCCNC(=O)CCOCC(COCCC(=O)NCCNC(=O)CCC(=O)Nc3cccc4c(C(=O)NCC(=O)N5CC(F)(F)C[C@H]5C#N)ccnc34)NC(=O)CCOCC(COCCC(=O)NC(COCCC(=O)NCCNC(=O)CCC(=O)Nc3cccc4c(C(=O)NCC(=O)N5CC(F)(F)C[C@H]5C#N)ccnc34)COCCC(=O)NCCNC(=O)CCC(=O)Nc3cccc4c(C(=O)NCC(=O)N5CC(F)(F)C[C@H]5C#N)ccnc34)NC(=O)CCC(C(=O)O)N3CCN(CC(=O)[O-])CCN(CC(=O)[O-])CCN(CC(=O)[O-])CC3)cccc12.[177Lu+3] (stereo partly shown) [^177Lu-Tetra-ESV6-DOTAGA],"Tumor to organs ratio, Blood",6 h,53.01
same,"Injected dose per gram, Blood",6 h post injection,1.16 % ID/g
same,"Tumor to organs ratio, Blood",24 h,146.80
same,"Injected dose per gram, Blood",24 h post injection,0.29 % ID/g
same,"Tumor to organs ratio, Blood",96 h,1062.04
same,"Injected dose per gram, Blood",96 h post injection,0.01 % ID/g
same,"Tumor to organs ratio, Heart",6 h,114.60
same,"Injected dose per gram, Heart",6 h post injection,0.50 % ID/g
same,"Tumor to organs ratio, Heart",24 h,166.10
same,"Injected dose per gram, Heart",24 h post injection,0.26 % ID/g
same,"Tumor to organs ratio, Heart",96 h,133.14
same,"Injected dose per gram, Heart",96 h post injection,0.12 % ID/g
same,"Tumor to organs ratio, Intestine",6 h,86.50
same,"Injected dose per gram, Intestine",6 h post injection,0.70 % ID/g
same,"Tumor to organs ratio, Intestine",24 h,284.15
same,"Injected dose per gram, Intestine",24 h post injection,0.15 % ID/g
same,"Tumor to organs ratio, Intestine",96 h,213.10
same,"Injected dose per gram, Intestine",96 h post injection,0.07 % ID/g
same,"Tumor to organs ratio, Kidney",6 h,27.69
same,"Injected dose per gram, Kidney",6 h post injection,2.10 % ID/g
same,"Tumor to organs ratio, Kidney",24 h,23.62
same,"Injected dose per gram, Kidney",24 h post injection,1.79 % ID/g
same,"Tumor to organs ratio, Kidney",96 h,2.36
same,"Injected dose per gram, Kidney",96 h post injection,5.77 % ID/g
same,"Tumor to organs ratio, Liver",6 h,15.19
same,"Injected dose per gram, Liver",6 h post injection,3.81 % ID/g
same,"Tumor to organs ratio, Liver",24 h,9.42
same,"Injected dose per gram, Liver",24 h post injection,4.52 % ID/g
same,"Tumor to organs ratio, Liver",96 h,2.07
same,"Injected dose per gram, Liver",96 h post injection,6.64 % ID/g
same,"Tumor to organs ratio, Lung",6 h,52.76
same,"Injected dose per gram, Lung",6 h post injection,1.09 % ID/g
same,"Tumor to organs ratio, Lung",24 h,138.32
same,"Injected dose per gram, Lung",24 h post injection,0.35 % ID/g
same,"Tumor to organs ratio, Lung",96 h,69.86
same,"Injected dose per gram, Lung",96 h post injection,0.24 % ID/g
same,"Tumor to organs ratio, Muscle",6 h,61.99
same,"Injected dose per gram, Muscle",6 h post injection,0.94 % ID/g
same,"Tumor to organs ratio, Muscle",24 h,98.07
same,"Injected dose per gram, Muscle",24 h post injection,0.44 % ID/g
same,"Tumor to organs ratio, Muscle",96 h,288.08
same,"Injected dose per gram, Muscle",96 h post injection,0.06 % ID/g
same,"Tumor to organs ratio, Spleen",6 h,44.00
same,"Injected dose per gram, Spleen",6 h post injection,1.33 % ID/g
same,"Tumor to organs ratio, Spleen",24 h,20.72
same,"Injected dose per gram, Spleen",24 h post injection,2.19 % ID/g
same,"Tumor to organs ratio, Spleen",96 h,3.88
same,"Injected dose per gram, Spleen",96 h post injection,3.64 % ID/g
same,"Tumor to organs ratio, Tail",6 h,24.06
same,"Injected dose per gram, Tail",6 h post injection,1.85 % ID/g
same,"Tumor to organs ratio, Tail",24 h,36.71
same,"Injected dose per gram, Tail",24 h post injection,1.16 % ID/g
same,"Tumor to organs ratio, Tail",96 h,24.96
same,"Injected dose per gram, Tail",96 h post injection,0.54 % ID/g
same,"Injected dose per gram, Tumor",6 h post injection,57.25 % ID/g
same,"Injected dose per gram, Tumor",24 h post injection,42.15 % ID/g
same,"Injected dose per gram, Tumor",96 h post injection,13.36 % ID/g
"N#C[C@@H]1CC(F)(F)CN1C(=O)CNC(=O)c1ccnc2c(NC(=O)CCC(=O)NCCNC(=O)CCOCC(COCCC(=O)NCCNC(=O)CCC(=O)Nc3cccc4c(C(=O)NCC(=O)N5CC(F)(F)C[C@H]5C#N)ccnc34)(COCCC(=O)NCCNC(=O)CCC(=O)Nc3cccc4c(C(=O)NCC(=O)N5CC(F)(F)C[C@H]5C#N)ccnc34)NC(=O)CCC(C(=O)O)N3CCN(CC(=O)O)CCN(CC(=O)O)CCN(CC(=O)O)CC3)cccc12 (stereo partly drawn) [Tri-ESV6-DOTAGA, 2,2′,2″-(10-(19-carboxy-1-((4-((2-((S)-2-cyano-4,4-difluoropyrrolidin-1-yl)-2-oxoethyl)carbamoyl)quinolin-8-yl)amino)-14,14-bis((3-((2-(4-((4-((2-((S)-2-cyano-4,4-difluoropyrrolidin-1-yl)-2-oxoethyl)carbamoyl)quinolin-8-yl)amino)-4-oxobutanamido)ethyl)amino)-3-oxopropoxy)methyl)-1,4,9,16-tetraoxo-12-oxa-5,8,15-triazanonadecan-19-yl)-1,4,7,10-tetraazacyclododecane-1,4,7-triyl)triacetic acid]","tumor uptake / biodistribution profile, in words",,"remarkably high tumor uptake even after 48, 72 and 96 hours post injection"
